Data as given in US20240309005A1 (priority 2021, published 2024).
In brackets after ≈: the same amount, converted by molar mass.

Assay: physchem
Settings: 25 °C, kinetic from dmso stock

Row | solubility at 2 h (pH 5, fessif) | solubility at 2 h (pH 7.4, aqueous buffer) | Structure (SMILES)
1 | 279 µM (≈ 127 µg/mL) | 290 µM (≈ 132 µg/mL) | C=CS(=O)(=O)Nc1ccc(-c2nc(OC3CCN(C(C)C)CC3)c3c(C)n[nH]c3n2)cc1 [Compound 1, N-(4-(4-((1-isopropylpiperidin-4-yl)oxy)-3-methyl-1H-pyrazolo[3,4-d]pyrimidin-6-yl)phenyl)ethenesulfonamide]
2 | 325 µM (≈ 173 µg/mL) | 19 µM (≈ 10.1 µg/mL) | Cc1n[nH]c2nc(-c3ccc(NS(=O)(=O)c4ccc(C#N)cc4)cc3)nc(OC3CCN(C(C)C)CC3)c12 [Compound 3, 4-cyano-N-(4-(4-((1-isopropylpiperidin-4-yl)oxy)-3-methyl-1H-pyrazolo[3,4-d]pyrimidin-6-yl)phenyl)benzenesulfonamide]
3 | 17.6 µM (≈ 9.43 µg/mL) | 293 µM (≈ 157 µg/mL) | Cc1n[nH]c2nc(-c3ccc(NS(=O)(=O)c4ccc(CN)cc4)cc3)nc(OC3CCN(C(C)C)CC3)c12 [Compound 4, 4-(aminomethyl)-N-(4-(4-((1-isopropylpiperidin-4-yl)oxy)-3-methyl-1H-pyrazolo[3,4-d]pyrimidin-6-yl)phenyl)benzenesulfonamide]
4 | 315 µM (≈ 149 µg/mL) | 40 µM (≈ 18.9 µg/mL) | Cc1n[nH]c2nc(-c3ccc(NS(=O)(=O)C(C)C)cc3)nc(OC3CCN(C(C)C)CC3)c12 [Compound 5, N-(4-(4-((1-isopropylpiperidin-4-yl)oxy)-3-methyl-1H-pyrazolo[3,4-d]pyrimidin-6-yl)phenyl)propane-2-sulfonamide]
5 | 258 µM (≈ 133 µg/mL) | 299 µM (≈ 154 µg/mL) | Cc1n[nH]c2nc(-c3ccc(NS(=O)(=O)N4CCCCC4)cc3)nc(OC3CCN(C(C)C)CC3)c12 [Compound 6, N-(4-(4-((1-isopropylpiperidin-4-yl)oxy)-3-methyl-1H-pyrazolo[3,4-d]pyrimidin-6-yl)phenyl)piperidine-1-sulfonamide]
6 | 91 µM (≈ 46 µg/mL) | 0.23 µM (≈ 0.116 µg/mL) | Cc1n[nH]c2nc(-c3ccc(NS(=O)(=O)c4cc(Cl)ccc4F)cc3)nc(OCCN(C)C)c12 [Compound 8, 5-chloro-N-(4-(4-(2-(dimethylamino)ethoxy)-3-methyl-1H-pyrazolo[3,4-d]pyrimidin-6-yl)phenyl)-2-fluorobenzenesulfonamide]
7 | 289 µM (≈ 146 µg/mL) | 8.5 µM (≈ 4.28 µg/mL) | Cc1n[nH]c2nc(-c3ccc(NS(=O)(=O)c4cc(Cl)ccc4F)cc3)nc(NCCN(C)C)c12 [Compound 9, 5-chloro-N-(4-(4-((2-(dimethylamino)ethyl)amino)-3-methyl-1H-pyrazolo[3,4-d]pyrimidin-6-yl)phenyl)-2-fluorobenzenesulfonamide]
8 | 33 µM (≈ 18.5 µg/mL) | 2.5 µM (≈ 1.4 µg/mL) | Cc1n[nH]c2nc(-c3cnc(NS(=O)(=O)c4cc(Cl)ccc4F)nc3)nc(OC3CCN(C(C)C)CC3)c12 [Compound 12, 5-chloro-2-fluoro-N-(5-(4-((1-isopropylpiperidin-4-yl)oxy)-3-methyl-1H-pyrazolo[3,4-d]pyrimidin-6-yl)pyrimidin-2-yl) benzenesulfonamide]
9 | 5.81 µM (≈ 3.04 µg/mL) | < 0.12 µM | Cc1n[nH]c2nc(-c3ccc(NS(=O)(=O)c4cc(Cl)ccc4F)cc3)nc(NCc3ccncc3)c12 [Compound 13, 5-chloro-2-fluoro-N-(4-(3-methyl-4-((pyridin-4-ylmethyl)amino)-1H-pyrazolo[3,4-d]pyrimidin-6-yl)phenyl)benzenesulfonamide]
10 | 202 µM (≈ 107 µg/mL) | 1.12 µM (≈ 0.595 µg/mL) | Cc1n[nH]c2nc(-c3ccc(NS(=O)(=O)c4cc(Cl)ccc4F)cc3)nc(OC3CN(C(C)C)C3)c12 [Compound 17, 5-chloro-2-fluoro-N-(4-[4-[(1-isopropylazetidin-3-yl)oxy]-3-methyl-1H-pyrazolo[3,4-d]pyrimidin-6-yl]phenyl)benzenesulfonamide]
11 | 277 µM (≈ 134 µg/mL) | 82 µM (≈ 39.6 µg/mL) | Cc1n[nH]c2nc(-c3ccc(NS(=O)(=O)c4ccccn4)cc3)nc(NCCN(C)CCO)c12 [Compound 20]
12 | 302 µM (≈ 146 µg/mL) | 2.26 µM (≈ 1.09 µg/mL) | Cc1n[nH]c2nc(-c3ccc(NS(=O)(=O)c4cccnc4)cc3)nc(NCCN(C)CCO)c12 [Compound 21, N-[4-[4-([2-[(2-hydroxyethyl)(methyl)amino]ethyl]amino)-3-methyl-1H-pyrazolo[3,4-d]pyrimidin-6-yl]phenyl]pyridine-3-sulfonamide]
13 | 301 µM (≈ 160 µg/mL) | 15.6 µM (≈ 8.27 µg/mL) | Cc1n[nH]c2nc(-c3ccc(NS(=O)(=O)c4cc(Cl)ccc4F)cc3)nc(NC3CN(C(C)C)C3)c12 [Compound 25, 5-chloro-2-fluoro-N-(4-(4-((1-isopropylazetidin-3-yl)amino)-3-methyl-1H-pyrazolo[3,4-d]pyrimidin-6-yl)phenyl)benzenesulfonamide]
14 | 285 µM (≈ 156 µg/mL) | 5.1 µM (≈ 2.78 µg/mL) | Cc1n[nH]c2nc(-c3ccc(NS(=O)(=O)c4cc(Cl)ccc4F)cc3)nc(NCCN3CCOCC3)c12 [Compound 26, 5-chloro-2-fluoro-N-(4-(3-methyl-4-((2-morpholinoethyl)amino)-1H-pyrazolo[3,4-d]pyrimidin-6-yl)phenyl)benzenesulfonamide]
15 | 298 µM (≈ 153 µg/mL) | 3.8 µM (≈ 1.95 µg/mL) | Cc1n[nH]c2nc(-c3ccc(NS(=O)(=O)c4cc(F)ccc4F)cc3)nc(NCCN3CCCC3)c12 [Compound 33, 2,5-difluoro-N-(4-(3-methyl-4-((2-(pyrrolidin-1-yl)ethyl)amino)-1H-pyrazolo[3,4-d]pyrimidin-6-yl)phenyl)benzenesulfonamide]
16 | 174 µM (≈ 93.1 µg/mL) | 0.7 µM (≈ 0.374 µg/mL) | Cc1n[nH]c2nc(-c3ccc(NS(=O)(=O)c4cc(Cl)ccc4F)cc3)nc(O[C@H]3CCNC[C@H]3F)c12 [Compound 46, 5-chloro-2-fluoro-N-(4-(4-(((3R,4S)-3-fluoropiperidin-4-yl)oxy)-3-methyl-1H-pyrazolo[3,4-d]pyrimidin-6-yl)phenyl)benzenesulfonamide]
17 | 211 µM (≈ 113 µg/mL) | 16.8 µM (≈ 8.99 µg/mL) | Cc1n[nH]c2nc(-c3ccc(NS(=O)(=O)c4cc(Cl)ccc4F)cc3)nc(O[C@H]3CCNC[C@@H]3F)c12 [Compound 47, 5-chloro-2-fluoro-N-(4-(4-(((3S,4S)-3-fluoropiperidin-4-yl)oxy)-3-methyl-1H-pyrazolo[3,4-d]pyrimidin-6-yl)phenyl)benzenesulfonamide]
18 | 178 µM (≈ 89.5 µg/mL) | 63.6 µM (≈ 32 µg/mL) | Cc1n[nH]c2nc(-c3ccc(NS(=O)(=O)c4cc(Cl)ccc4F)cc3)nc(O[C@H]3CCNC3)c12 [Compound 48, 5-chloro-2-fluoro-N-(4-{3-methyl-4-[(3S)-pyrrolidin-3-yloxy]-1H-pyrazolo[3,4-d]pyrimidin-6-yl}phenyl)benzenesulfonamide]
19 | 265 µM (≈ 143 µg/mL) | 0.27 µM (≈ 0.146 µg/mL) | Cc1n[nH]c2nc(-c3ccc(NS(=O)(=O)c4cc(Cl)ccc4F)cc3)nc(O[C@@H]3CNCC3(F)F)c12 [Compound 49, 5-chloro-N-(4-{4-[(4,4-difluoropyrrolidin-3-yl)oxy]-3-methyl-1H-pyrazolo[3,4-d]pyrimidin-6-yl}phenyl)-2-fluorobenzenesulfonamide]
20 | 283 µM (≈ 151 µg/mL) | 11.3 µM (≈ 6.05 µg/mL) | Cc1n[nH]c2nc(-c3ccc(NS(=O)(=O)c4cc(Cl)ccc4F)cc3)nc(O[C@@H]3CCNC[C@H]3F)c12 [Compound 53, 5-chloro-2-fluoro-N-[4-(4-{[(3R,4R)-3-fluoropiperidin-4-yl]oxy}-3-methyl-1H-pyrazolo[3,4-d]pyrimidin-6-yl)phenyl]benzenesulfonamide]
21 | 244 µM (≈ 126 µg/mL) | 1.37 µM (≈ 0.708 µg/mL) | Cc1n[nH]c2nc(-c3ccc(NS(=O)(=O)c4cc(Cl)ccc4F)cc3)nc(OC3CCNCC3)c12 [Compound 55, 5-chloro-2-fluoro-N-{4-[3-methyl-4-(piperidin-4-yloxy)-1H-pyrazolo[3,4-d]pyrimidin-6-yl]phenyl}benzenesulfonamide]
22 | 73.7 µM (≈ 40.5 µg/mL) | 0.48 µM (≈ 0.264 µg/mL) | CCN1C[C@H](F)[C@H](Oc2nc(-c3ccc(NS(=O)(=O)c4cc(Cl)ccc4F)cc3)nc3[nH]nc(C)c23)C1 [Compound 56, 5-chloro-N-[4-(4-{[(3R,4S)-1-ethyl-4-fluoropyrrolidin-3-yl]oxy}-3-methyl-1H-pyrazolo[3,4-d]pyrimidin-6-yl)phenyl]-2-fluorobenzenesulfonamide]
23 | 262 µM (≈ 140 µg/mL) | 0.92 µM (≈ 0.492 µg/mL) | Cc1n[nH]c2nc(-c3ccc(NS(=O)(=O)c4cc(Cl)ccc4F)cc3)nc(O[C@@H]3CN(C)C[C@@H]3F)c12 [Compound 58, 5-chloro-2-fluoro-N-[4-(4-{[(3R,4S)-4-fluoro-1-methylpyrrolidin-3-yl]oxy}-3-methyl-1H-pyrazolo[3,4-d]pyrimidin-6-yl)phenyl]benzenesulfonamide]
24 | 16.2 µM (≈ 8.55 µg/mL) | 0.36 µM (≈ 0.19 µg/mL) | COc1ccnc(S(=O)(=O)Nc2ccc(-c3nc(O[C@@H]4CCN(C)C[C@@H]4F)c4c(C)n[nH]c4n3)cc2)c1 [Compound 62, N-[4-(4-{[(3S,4R)-3-fluoro-1-methylpiperidin-4-yl]oxy}-3-methyl-1H-pyrazolo[3,4-d]pyrimidin-6-yl)phenyl]-4-methoxypyridine-2-sulfonamide]
25 | 6.43 µM (≈ 3.85 µg/mL) | < 0.24 µM | Cc1n[nH]c2nc(-c3ccc(NS(=O)(=O)c4cc(Cl)ccc4F)cc3)nc(O[C@@H]3CCN(CC(F)F)C[C@@H]3F)c12 [Compound 64, 5-chloro-N-[4-(4-{[(3S,4R)-1-(2,2-difluoroethyl)-3-fluoropiperidin-4-yl]oxy}-3-methyl-1H-pyrazolo[3,4-d]pyrimidin-6-yl)phenyl]-2-fluorobenzenesulfonamide]
26 | 210 µM (≈ 116 µg/mL) | 0.73 µM (≈ 0.403 µg/mL) | [2H]C([2H])([2H])N1CC[C@@H](Oc2nc(-c3ccc(NS(=O)(=O)c4cc(Cl)ccc4F)cc3)nc3[nH]nc(C)c23)[C@@H](F)C1 [Compound 65, 5-chloro-2-fluoro-N-(4-(4-(((3S,4R)-3-fluoro-1-(methyl-d3)piperidin-4-yl)oxy)-3-methyl-1H-pyrazolo[3,4-d]pyrimidin-6-yl)phenyl)benzenesulfonamide]
27 | 32.9 µM (≈ 16.4 µg/mL) | 1.51 µM (≈ 0.751 µg/mL) | Cc1n[nH]c2nc(-c3ccc(NS(=O)(=O)c4ccccn4)cc3)nc(O[C@@H]3CCN(C)C[C@@H]3F)c12 [Compound 66, N-[4-(4-{[(3S,4R)-3-fluoro-1-methylpiperidin-4-yl]oxy}-3-methyl-1H-pyrazolo[3,4-d]pyrimidin-6-yl)phenyl]pyridine-2-sulfonamide]
